Data: patent US20230257374A1, “NOVEL KRAS G12C PROTEIN INHIBITOR, PREPARATION METHOD THEREFOR, AND USE THEREOF” (INNOVENT BIOLOGICS (SUZHOU) CO., LTD., priority 2019, published 2023)
Blank lines part the entries; values can stand above or below the compound they belong to.

Experiments:
[1] = in vitro; settings: microsomes, pH 7.4
Method: To examine the in vitro metabolic stability of the test compounds in liver microsomes of different species, representative compounds were selected, and their stability was evaluated by measuring the concentration of the test compounds in the incubation system using LC/MS/MS and calculating their intrinsic clearance in the microsome system.
The method is specifically as follows: each compound was first dissolved in DMSO to prepare a 200 μM working solution and added to the system solution at the time of testing to form a solution with a final concentration of 1 μM.
The microsomes were stored in a −80° C. freezer.
Preparation of incubation system: an incubation system was prepared as described in the table below.
25 μL, of NADPH or phosphate buffered saline was transferred to the incubation system described above, and 2 μL, of 200 μM of the test compound or verapamil was added. The sample with NADPH added was prepared in duplicate; the NADPH negative sample was prepared in single parallel. 30 μL, of suspension was taken at 0.5, 5, 15, 30 and 60 minutes. The reaction system was terminated by adding 180 μL, of acetonitrile containing an internal standard and vortexed for 10 min. […] 100 μL, of the supernatant was transferred to a feeding plate, and 100 μL, of purified water was added. The mixture was well mixed for UPLC-MS/MS analysis.
The results based on the data were obtained by calculation according to the peak area ratio, and the peak area was detected through an extracted ion chromatogram.
The slope value (k) was determined by linear fitting of the natural logarithm of drug elimination percentage over time.

[2] = biological target: T1, KRAS G12C protein (Homo sapiens, UniProt P01116, G12C); test: ERK protein phosphorylation assay (p-ERK) in H358 cells; type: cell-based; set-up: scale not given here; settings: H358 cells expressing KRAS G12C protein, 3 h incubation with compound; read-out: IC50, inhibiting phosphorylation of KRAS G12C protein-mediated downstream signaling (p-ERK)
T1 construct: H358 cells (ATCC, CRL-5807) expressing KRAS G12C protein; host or cells: H358 (NCI-H358) cells
T1 sequence (P01116 1-188 isoform P01116-2 G12C): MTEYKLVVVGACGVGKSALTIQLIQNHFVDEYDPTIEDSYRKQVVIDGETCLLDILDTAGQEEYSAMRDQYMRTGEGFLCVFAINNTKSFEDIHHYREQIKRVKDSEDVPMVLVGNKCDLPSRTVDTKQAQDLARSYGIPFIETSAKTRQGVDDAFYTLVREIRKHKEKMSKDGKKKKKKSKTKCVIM
Method: The cells were cultured in a 5% CO2 cell incubator for 16 h. The serially diluted compound was added to the cell medium with Echo550 at a final DMSO concentration of 0.5%, and the incubation was continued for 3 h. Then 8% paraformaldehyde (Solarbio, P1112) was added at 40 μL/well, followed by incubation at room temperature for 20 min. After one washing with PBS, cold 100% methanol was added at 40 μL/well for permeabilization for 10 min. […] Washing with PBST was performed 3 times, with 2 min of incubation for each washing. […] Washing with PBST was performed 3 times, with 2 min of incubation for each washing. Finally, the cell culture plate was inverted and centrifuged at 1000 rpm for 1 min, after which fluorescence signals were read using Odyssey CLx.

[3] = Stability test in human plasma
Method: To examine the stability of the test compounds in plasma, representative compounds were selected for evaluation.
Preparation of stock solution: a test compound was dissolved in DMSO to prepare a 1 mM stock solution for later use; Propantheline Bromide was dissolved in acetonitrile to prepare a 1 mM stock solution as a positive control for later use.
To each well was added 2 μL of the stock solution of the test compound and the stock solution of the positive control such that the final concentrations were 5 KM and the concentration of the organic solvent was 0.5%. Each compound was prepared in duplicate, followed by incubation at 37° C. 50 μL of samples were taken from the reaction samples in equal amounts at 0, 30, 60, 120, 180 and 240 minutes, and 450 μL of cold acetonitrile containing an internal standard was added to terminate the reaction. […] 100 μL of the supernatants were transferred to a new plate, dilute with ultra-pure water, and analyzed by LC-MS/MS.
Data results were calculated according to peak area ratios.
The percentage of remaining compound for each time point was calculated as follows:
Remaining percentagemin(%)=peak area ratiosmin/peak area ratiomin×100%
where peak area ratios represents the peak area ratio of the test compound to the internal standard compound at t min; peak area ratiomin represents the peak area ratio of the test compound to the internal standard compound at 0 min (initial).

- half-life at 1 μM ([1]; ICR (CD-1), mouse): 12.3 min
- microsomal CLint at 1 μM ([1]; ICR (CD-1), mouse): 113 µL/min/mg
- half-life at 1 μM ([1]; human): 19.3 min
- microsomal CLint at 1 μM ([1]; human): 72 µL/min/mg
SMILES: [2H]C([2H])([2H])N1CCC[C@H]1COc1nc2c(c(N3CCN(C(=O)C(=C)F)[C@@H](CC#N)C3)n1)CCN(c1cccc3cccc(Cl)c13)C2 [Compound 18, 2-((S)-4-(7-(8-chloronaphthalen-1-yl)-2-(((S)-1-(methyl-d3)pyrrolidin-2-yl)methoxy)-5,6,7,8-tetrahydropyrido[3,4-d]pyrimidin-4-yl)-1-(2-fluoroacryloyl)piperazin-2-yl)acetonitrile]

- IC50 [2]: < 1000 nM
SMILES: C=CC(=O)N1CCN(c2nc(OC[C@@H]3CCCN3[11CH3])nc3c2CCN(c2cccc4cccc(C)c24)C3)C[C@@H]1CC#N [Compound 25, 2-((S)-1-acryloyl-4-(2-(((S)-1-(methyl-^11C)pyrrolidin-2-yl)methoxy)-7-(8-methylnaphthalen-1-yl)-5,6,7,8-tetrahydropyrido[3,4-d]pyrimidin-4-yl)piperazin-2-yl)acetonitrile]

- IC50 [2]: < 1000 nM
SMILES: C=CC(=O)N1CCN(c2nc(OC[C@@H]3CCCN3[13CH3])nc3c2CCN(c2cccc4cccc(C)c24)C3)C[C@@H]1CC#N [Compound 26, 2-((S)-1-acryloyl-4-(2-(((S)-1-(methyl-^13C)pyrrolidin-2-yl)methoxy)-7-(8-methylnaphthalen-1-yl)-5,6,7,8-tetrahydropyrido[3,4-d]pyrimidin-4-yl)piperazin-2-yl)acetonitrile]

- IC50 [2]: < 1000 nM
SMILES: [2H]C([2H])([2H])N1CCC[C@H]1COc1nc2c(c(N3CCN(C(=O)C=C)[C@@H](CC#N)C3)n1)CCN(c1cncc3cccc([14CH3])c13)C2 [Compound 32, 2-((S)-1-acryloyl-4-(2-(((S)-1-(methyl-d3)pyrrolidine-2-yl)methoxy)-7-(5-(methyl-^14C)isoquinolin-4-yl)-5,6,7,8-tetrahydropyrido[3,4-d]pyrimidin-4-yl)piperazin-2-yl)acetonitrile]

- IC50 [2]: < 1000 nM
SMILES: [2H]C([2H])([2H])C([2H])([2H])N1CCC[C@H]1COc1nc2c(c(N3CCN(C(=O)C=C)[C@@H](CC#N)C3)n1)CCN(c1cccc3cccc(C)c13)C2 [Compound 35, 2-((S)-1-acryloyl-4-(2-(((S)-1-(ethyl-d5)pyrrolidin-2-yl)methoxy)-7-(8-methylnaphthalen-1-yl)-5,6,7,8-tetrahydropyrido[3,4-d]pyrimidin-4-yl)piperazin-2-yl)acetonitrile]

- IC50 [2]: < 1000 nM
SMILES: [2H]C([2H])([2H])C([2H])([2H])N1CCC[C@H]1COc1nc2c(c(N3CCN(C(=O)C=C)[C@@H](CC#N)C3)n1)CCN(c1cccc3cccc(Cl)c13)C2 [Compound 36, 2-((S)-1-acryloyl-4-(7-(8-chloronaphthalene-1-yl)-2-(((S)-1-(ethyl-d5)pyrrolidin-2-yl)methoxy)-5,6,7,8-tetrahydropyrido[3,4-d]pyrimidin-4-yl)piperazin-2-yl)acetonitrile]

- IC50 [2]: < 1000 nM
SMILES: [2H]C([2H])([2H])C([2H])(N1CCC[C@H]1COc1nc2c(c(N3CCN(C(=O)C=C)[C@@H](CC#N)C3)n1)CCN(c1cccc3cccc(Cl)c13)C2)C([2H])([2H])[2H] [Compound 38, 2-((S)-1-acryloyl-4-(7-(8-chloronaphthalene-1-yl)-2-(((S)-1-(isopropyl-d7)pyrrolidin-2-yl)methoxy)-5,6,7,8-tetrahydropyrido[3,4-d]pyrimidin-4-yl)piperazin-2-yl)acetonitrile]

Second part, the compound before the results:

SMILES: [2H]C([2H])([2H])N1CCC[C@H]1COc1nc2c(c(N3CCN(C(=O)C(=C)F)[C@@H](CC#N)C3)n1)CCN(c1cccc3cccc([14CH3])c13)C2 [Compound 29, 2-((S)-1-(2-fluoroacryloyl)-4-(2-(((S)-1-(methyl-d3)pyrrolidin-2-yl)methoxy)-7-(8-(methyl-^14C)naphthalen-1-yl)-5,6,7,8-tetrahydropyrido[3,4-d]pyrimidin-4-yl)piperazin-2-yl)acetonitrile]
- IC50 [2]: < 1000 nM

SMILES: [2H]C([2H])([2H])N1CCC[C@H]1COc1nc2c(c(N3CCN(C(=O)C=C)[C@@H](CC#N)C3)n1)CCN(c1cncc3cccc(C)c13)C2 [Compound 30, 2-((S)-1-acryloyl-4-(2-(((S)-1-(methyl-d3)pyrrolidin-2-yl)methoxy)-7-(5-methylisoquinolin-4-yl)-5,6,7,8-tetrahydropyrido[3,4-d]pyrimidin-4-yl)piperazin-2-yl)acetonitrile]
- IC50 [2]: < 1000 nM

SMILES: [2H]C([2H])([2H])N1CCC[C@H]1COc1nc2c(c(N3CCN(C(=O)C=C)[C@@H](CC#N)C3)n1)CCN(c1cncc3cccc([13CH3])c13)C2 [Compound 31, 2-((S)-1-acryloyl-4-(2-(((S)-1-(methyl-d3)pyrrolidine-2-yl)methoxy)-7-(5-(methyl-^13C)isoquinolin-4-yl)-5,6,7,8-tetrahydropyrido[3,4-d]pyrimidin-4-yl)piperazin-2-yl)acetonitrile]
- IC50 [2]: < 1000 nM

SMILES: [2H]C([2H])([2H])CN1CCC[C@H]1COc1nc2c(c(N3CCN(C(=O)C=C)[C@@H](CC#N)C3)n1)CCN(c1cccc3cccc(C)c13)C2 [Compound 33, 2-((S)-1-acryloyl-4-(2-(((S)-1-(ethyl-2,2,2-d3)pyrrolidin-2-yl)methoxy)-7-(8-methylnaphthalen-1-yl)-5,6,7,8-tetrahydropyrido[3,4-d]pyrimidin-4-yl)piperazin-2-yl)acetonitrile]
- IC50 [2]: < 1000 nM

SMILES: [2H]C([2H])([2H])CN1CCC[C@H]1COc1nc2c(c(N3CCN(C(=O)C=C)[C@@H](CC#N)C3)n1)CCN(c1cccc3cccc(Cl)c13)C2 [Compound 34, 2-((S)-1-acryloyl-4-(7-(8-chloronaphthalene-1-yl)-2-(((S)-1-(ethyl-2,2,2-d3)pyrrolidin-2-yl)methoxy)-5,6,7,8-tetrahydropyrido[3,4-d]pyrimidin-4-yl)piperazin-2-yl)acetonitrile]
- IC50 [2]: < 1000 nM

SMILES: [2H]C([2H])([2H])C([2H])(N1CCC[C@H]1COc1nc2c(c(N3CCN(C(=O)C=C)[C@@H](CC#N)C3)n1)CCN(c1cccc3cccc(C)c13)C2)C([2H])([2H])[2H] [Compound 37, 2-((S)-1-acryloyl-4-(7-(8-methylnaphthalen-1-yl)-2-(((S)-1-(isopropyl-d7)pyrrolidin-2-yl)methoxy)-5,6,7,8-tetrahydropyrido[3,4-d]pyrimidin-4-yl)piperazin-2-yl)acetonitrile]
- IC50 [2]: < 1000 nM

SMILES: C=CC(=O)N1CCN(c2nc(OC[C@@H]3CCCN3[14CH3])nc3c2CCN(c2cccc4cccc(C)c24)C3)C[C@@H]1CC#N [Compound 39, 2-((S)-1-acryloyl-4-(2-(((S)-1-(methyl-^14C)pyrrolidin-2-yl)methoxy)-7-(8-methylnaphthalen-1-yl)-5,6,7,8-tetrahydropyrido[3,4-d]pyrimidin-4-yl)piperazin-2-yl)acetonitrile]
- IC50 [2]: < 1000 nM

SMILES: C=C(F)C(=O)N1CCN(c2nc(OC[C@@H]3CCCN3C)nc3c2CCN(c2cccc4cccc(Cl)c24)C3)C[C@@H]1CC#N [MRTX849, reference compound]
- half-life at 1 μM ([1]; ICR (CD-1), mouse): 10 min
- microsomal CLint at 1 μM ([1]; ICR (CD-1), mouse): 139 µL/min/mg
- half-life at 1 μM ([1]; human): 19.8 min
- microsomal CLint at 1 μM ([1]; human): 70.2 µL/min/mg

SMILES: CC(C)[N+](C)(CCOC(=O)C1c2ccccc2Oc2ccccc21)C(C)C [Propantheline Bromide, reference compound]
- Remaining percentage (%) 0 min ([3]; human plasma, 37° C., 0 min): 100.00%
- Remaining percentage (%) 30 min ([3]; human plasma, 37° C., 30 min): 33.35%
- Remaining percentage (%) 60 min ([3]; human plasma, 37° C., 60 min): 7.71%
- Remaining percentage (%) 120 min ([3]; human plasma, 37° C., 120 min): 0.15%
- Remaining percentage (%) 180 min ([3]; human plasma, 37° C., 180 min): BLOD
- Remaining percentage (%) 240 min ([3]; human plasma, 37° C., 240 min): BLOD
- half-life at 5 μM ([3]; human, plasma): 19 min
